The target of assay [1] is T1, mouse Siglec-2-Fc-Avi (CD22) (Mus musculus, UniProt P35329).
T1 construct: made in house
T1 sequence (P35329 22-708 limits assumed): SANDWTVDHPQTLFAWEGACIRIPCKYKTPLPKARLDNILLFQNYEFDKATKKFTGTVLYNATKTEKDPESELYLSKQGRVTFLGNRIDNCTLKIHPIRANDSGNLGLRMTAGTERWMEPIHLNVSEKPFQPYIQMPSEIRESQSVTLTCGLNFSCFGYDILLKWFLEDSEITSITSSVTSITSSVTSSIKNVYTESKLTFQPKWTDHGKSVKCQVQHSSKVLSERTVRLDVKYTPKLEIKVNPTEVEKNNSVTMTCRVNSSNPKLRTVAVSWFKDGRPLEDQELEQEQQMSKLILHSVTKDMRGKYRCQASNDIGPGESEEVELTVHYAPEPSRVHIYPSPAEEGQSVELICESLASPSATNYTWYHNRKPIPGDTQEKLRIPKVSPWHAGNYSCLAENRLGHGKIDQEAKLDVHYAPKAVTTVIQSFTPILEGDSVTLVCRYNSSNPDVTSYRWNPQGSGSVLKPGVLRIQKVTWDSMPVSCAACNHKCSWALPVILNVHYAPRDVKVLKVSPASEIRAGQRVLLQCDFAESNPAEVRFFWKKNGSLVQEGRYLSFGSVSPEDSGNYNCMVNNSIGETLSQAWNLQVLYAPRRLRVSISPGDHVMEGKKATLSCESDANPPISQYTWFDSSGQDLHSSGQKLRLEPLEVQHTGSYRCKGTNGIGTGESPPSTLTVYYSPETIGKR
Nature of the assay: SPR binding affinity to mouse CD22. To be noted: steady-state analysis. The method in brief:
(§1)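 Native sialic acid residues are removed from the receptor enzymatically (4 hours at 37° C.) prior to streptavidin capture of the biotinylated protein. Ligand compounds then flow over in HEPES-buffered saline, pH 7.5, containing 0.05% Tween-20 and 1% DMSO, and binding is evaluated at steady state.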

In the next assay the target is cynomolgus Siglec-2/CD22 (Macaca fascicularis, UniProt A0A2K5WCZ6). Nature of the assay: biochemical. To be noted: SPR, steady-state analysis; read-out: Affinity cyno CD22. In kind it is binding. In short, it runs like this: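 SPR with desialylated (SialoExo, 4 h, 37° C.) cynomolgus CD22 amine-coupled to a CM5 chip. Running buffer 10 mM HEPES, 150 mM NaCl, 0.05% Tween-20, pH 7.5, 1% DMSO, with solvent correction; 120 s dissociation. Affinities from steady-state analysis.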
Chain of cynomolgus Siglec-2/CD22 (A0A2K5WCZ6 entry or part of it): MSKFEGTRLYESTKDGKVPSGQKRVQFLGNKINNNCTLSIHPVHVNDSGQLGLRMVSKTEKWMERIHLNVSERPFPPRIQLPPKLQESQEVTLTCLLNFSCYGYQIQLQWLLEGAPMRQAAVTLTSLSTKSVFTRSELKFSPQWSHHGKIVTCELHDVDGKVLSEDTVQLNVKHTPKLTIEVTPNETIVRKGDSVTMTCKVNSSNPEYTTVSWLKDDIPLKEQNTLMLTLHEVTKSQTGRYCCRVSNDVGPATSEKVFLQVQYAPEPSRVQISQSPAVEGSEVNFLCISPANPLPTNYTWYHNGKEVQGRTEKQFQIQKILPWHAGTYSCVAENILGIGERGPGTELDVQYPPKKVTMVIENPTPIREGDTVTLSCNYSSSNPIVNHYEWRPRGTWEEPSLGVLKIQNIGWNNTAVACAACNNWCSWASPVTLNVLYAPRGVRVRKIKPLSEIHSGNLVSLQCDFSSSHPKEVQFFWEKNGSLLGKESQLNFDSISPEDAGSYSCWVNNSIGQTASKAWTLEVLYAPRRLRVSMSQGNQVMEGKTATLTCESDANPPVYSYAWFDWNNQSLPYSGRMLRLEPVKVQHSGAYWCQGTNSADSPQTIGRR

Assay [2] addresses T2, human Siglec-2/CD22 protein (Homo sapiens, UniProt P20273).
T2 construct: purchased Acro Biosystems SI2-H82E3
T2 sequence (P20273 20-847): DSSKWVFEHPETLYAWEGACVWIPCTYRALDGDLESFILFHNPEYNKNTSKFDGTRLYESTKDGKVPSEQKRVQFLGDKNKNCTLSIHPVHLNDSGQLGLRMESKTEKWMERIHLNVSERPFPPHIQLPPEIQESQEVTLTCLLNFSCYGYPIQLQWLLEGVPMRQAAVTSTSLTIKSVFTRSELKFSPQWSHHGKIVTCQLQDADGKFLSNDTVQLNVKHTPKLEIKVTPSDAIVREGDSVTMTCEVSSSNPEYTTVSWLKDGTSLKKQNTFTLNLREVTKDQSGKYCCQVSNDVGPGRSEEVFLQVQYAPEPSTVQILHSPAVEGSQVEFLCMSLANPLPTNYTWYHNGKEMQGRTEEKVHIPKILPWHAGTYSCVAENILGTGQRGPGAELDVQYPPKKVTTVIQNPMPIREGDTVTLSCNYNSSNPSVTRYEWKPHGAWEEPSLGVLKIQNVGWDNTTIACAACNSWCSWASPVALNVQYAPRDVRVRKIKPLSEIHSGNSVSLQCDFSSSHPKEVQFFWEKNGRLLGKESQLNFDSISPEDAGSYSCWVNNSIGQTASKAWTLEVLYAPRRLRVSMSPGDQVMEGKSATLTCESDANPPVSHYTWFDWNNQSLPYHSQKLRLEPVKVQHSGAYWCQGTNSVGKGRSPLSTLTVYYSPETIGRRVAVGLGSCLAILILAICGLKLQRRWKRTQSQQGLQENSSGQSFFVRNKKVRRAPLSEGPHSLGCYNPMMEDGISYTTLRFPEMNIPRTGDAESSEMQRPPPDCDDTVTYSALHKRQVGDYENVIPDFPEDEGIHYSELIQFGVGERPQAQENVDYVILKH
In words: SPR binding affinity to human CD22. To be noted: steady-state analysis. In short, it runs like this: as §1
On the technique in general: SPR reads the build-up and loss of mass on a sensor chip optically.

As to `C#CCOCCOCCO[C@]1(C(=O)O)C[C@H](O)[C@@H](NC(=O)CO)[C@H]([C@H](O)[C@H](O)CNC(=O)Cc2ccc(-c3ccccc3)c(O)c2)O1` [Compound 66, (2R,4S,5R,6R)-6-((1R,2R)-1,2-dihydroxy-3-(2-(2-hydroxy-[1,1′-biphenyl]-4-yl)acetamido)propyl)-4-hydroxy-5-(2-hydroxyacetamido)-2-(2-(2-(prop-2-yn-1-yloxy)ethoxy)ethoxy)tetrahydro-2H-pyran-2-carboxylic acid], the figures for the Kd (in assay [1]; on cynomolgus Siglec-2/CD22; in assay [2]) were more than 10 µM, more than 10 µM and 1 to 10 µM, respectively.
As to `C#CCOCCOCCO[C@]1(C(=O)O)C[C@H](O)[C@@H](NC(=O)CO)[C@H]([C@H](O)[C@H](O)CNC(=O)Cc2ccc(-c3ccccc3)cc2O)O1` [Compound 67, (2R,4S,5R,6R)-6-((1R,2R)-1,2-dihydroxy-3-(2-(3-hydroxy-[1,1′-biphenyl]-4-yl)acetamido)propyl)-4-hydroxy-5-(2-hydroxyacetamido)-2-(2-(2-(prop-2-yn-1-yloxy)ethoxy)ethoxy)tetrahydro-2H-pyran-2-carboxylic acid], the Kd (in assay [1]; on cynomolgus Siglec-2/CD22; in assay [2]) was 1 to 10 µM throughout.
For the molecule `C#CCOCCOCCO[C@]1(C(=O)O)C[C@H](O)[C@@H](NC(=O)CO)[C@H]([C@H](O)[C@H](O)CNC(=O)Cc2ccc(-c3ccccc3O)cc2)O1` [Compound 68, (2R,4S,5R,6R)-6-((1R,2R)-1,2-dihydroxy-3-(2-(2′-hydroxy-[1,1′-biphenyl]-4-yl)acetamido)propyl)-4-hydroxy-5-(2-hydroxyacetamido)-2-(2-(2-(prop-2-yn-1-yloxy)ethoxy)ethoxy)tetrahydro-2H-pyran-2-carboxylic acid], the Kd in assay [1] is 1 to 10 µM; at cynomolgus Siglec-2/CD22, 1 to 10 µM; in assay [2], less than 1 µM.
For `C#CCOCCOCCO[C@]1(C(=O)O)C[C@H](O)[C@@H](NC(=O)CS)[C@H]([C@H](O)[C@H](O)CNC(=O)Cc2ccc(-c3ccc(O)cc3)cc2)O1` [Compound 69, (2R,4S,5R,6R)-6-((1R,2R)-1,2-dihydroxy-3-(2-(4′-hydroxy-[1,1′-biphenyl]-4-yl)acetamido)propyl)-4-hydroxy-5-(2-mercaptoacetamido)-2-(2-(2-(prop-2-yn-1-yloxy)ethoxy)ethoxy)tetrahydro-2H-pyran-2-carboxylic acid], the Kd in assay [1] is more than 10 µM; at cynomolgus Siglec-2/CD22, more than 10 µM; in assay [2], 1 to 10 µM.
With `C#CCOCCOCCO[C@]1(C(=O)O)C[C@H](O)[C@@H](NC(=O)NC)[C@H]([C@H](O)[C@H](O)CNC(=O)Cc2ccc(-c3ccc(O)cc3)cc2)O1` [Compound 70, (2R,4S,5R,6R)-6-((1R,2R)-1,2-dihydroxy-3-(2-(4′-hydroxy-[1,1′-biphenyl]-4-yl)acetamido)propyl)-4-hydroxy-5-(3-methylureido)-2-(2-(2-(prop-2-yn-1-yloxy)ethoxy)ethoxy)tetrahydro-2H-pyran-2-carboxylic acid], the Kd is 1 to 10 µM in assay [1], 1 to 10 µM at cynomolgus Siglec-2/CD22 and less than 1 µM in assay [2].
For `C#CCOCCOCCO[C@]1(C(=O)O)C[C@H](O)[C@@H](NC(=O)C(C)(C)O)[C@H]([C@H](O)[C@H](O)CNC(=O)Cc2ccc(-c3ccc(O)cc3)cc2)O1` [Compound 71, (2R,4S,5R,6R)-6-((1R,2R)-1,2-dihydroxy-3-(2-(4′-hydroxy-[1,1′-biphenyl]-4-yl)acetamido)propyl)-4-hydroxy-5-(2-hydroxy-2-methylpropanamido)-2-(2-(2-(prop-2-yn-1-yloxy)ethoxy)ethoxy)tetrahydro-2H-pyran-2-carboxylic acid], the Kd is more than 10 µM in assay [1], 1 to 10 µM on cynomolgus Siglec-2/CD22 and 1 to 10 µM in assay [2].
On to `C#CCCOc1ccc(CO[C@]2(C(=O)O)C[C@H](O)[C@@H](NC(=O)CO)[C@H]([C@H](O)[C@H](O)CNC(=O)Cc3ccc(-c4ccc(O)cc4)cc3)O2)cc1O` [Compound 73, (2R,4S,5R,6R)-2-((4-(but-3-yn-1-yloxy)-3-hydroxybenzyl)oxy)-6-((1R,2R)-1,2-dihydroxy-3-(2-(4′-hydroxy-[1,1′-biphenyl]-4-yl)acetamido)propyl)-4-hydroxy-5-(2-hydroxyacetamido)tetrahydro-2H-pyran-2-carboxylic acid], for which the Kd (in assay [1]; at cynomolgus Siglec-2/CD22; in assay [2]) was less than 1 µM throughout.
In the case of `C#CCOCCOCCO[C@]1(C(=O)O)C[C@H](O)[C@@H](NC(=O)CO)[C@H]([C@H](O)[C@H](O)CNC(=O)Cc2ccc(-c3ccc(=O)[nH]c3)cc2)O1` [Compound 74, (2R,4S,5R,6R)-6-((1R,2R)-1,2-dihydroxy-3-(2-(4-(6-oxo-1,6-dihydropyridin-3-yl)phenyl)acetamido)propyl)-4-hydroxy-5-(2-hydroxyacetamido)-2-(2-(2-(prop-2-yn-1-yloxy)ethoxy)ethoxy)tetrahydro-2H-pyran-2-carboxylic acid], the Kd (in assay [1]; on cynomolgus Siglec-2/CD22; in assay [2]) was 1 to 10 µM in each case.
For `C#CCOCCOCCO[C@]1(C(=O)O)C[C@H](O)[C@@H](NC(=O)CO)[C@H]([C@H](O)[C@H](O)CNC(=O)Cc2ccc(-c3cc[nH]c(=O)c3)cc2)O1` [Compound 75, (2R,4S,5R,6R)-6-((1R,2R)-1,2-dihydroxy-3-(2-(4-(2-oxo-1,2-dihydropyridin-4-yl)phenyl)acetamido)propyl)-4-hydroxy-5-(2-hydroxyacetamido)-2-(2-(2-(prop-2-yn-1-yloxy)ethoxy)ethoxy)tetrahydro-2H-pyran-2-carboxylic acid], the Kd (in assay [1]; on cynomolgus Siglec-2/CD22; in assay [2]) was more than 10 µM in each case.
Turning to `C#CCOCCOCCO[C@]1(C(=O)O)C[C@H](O)[C@@H](NC(=O)C(F)F)[C@H]([C@H](O)[C@H](O)CNC(=O)Cc2ccc(-c3ccc(O)cc3)cc2)O1` [Compound 76, (2R,4S,5R,6R)-5-(2,2-difluoroacetamido)-6-((1R,2R)-1,2-dihydroxy-3-(2-(4′-hydroxy-[1,1′-biphenyl]-4-yl)acetamido)propyl)-4-hydroxy-2-(2-(2-(prop-2-yn-1-yloxy)ethoxy)ethoxy)tetrahydro-2H-pyran-2-carboxylic acid], the Kd in assay [1] is 1 to 10 µM; on cynomolgus Siglec-2/CD22, 1 to 10 µM; in assay [2], less than 1 µM.
For `C#CCCOc1ccc(CO[C@]2(C(=O)O)C[C@H](O)[C@@H](NC(=O)CO)[C@H]([C@H](O)[C@H](O)CNC(=O)Cc3ccc(-c4ccc(O)cc4)cc3)O2)cc1` [Compound 77, (2R,4S,5R,6R)-2-((4-(but-3-yn-1-yloxy)benzyl)oxy)-6-((1R,2R)-1,2-dihydroxy-3-(2-(4′-hydroxy-[1,1′-biphenyl]-4-yl)acetamido)propyl)-4-hydroxy-5-(2-hydroxyacetamido)tetrahydro-2H-pyran-2-carboxylic acid], the Kd (in assay [1]; on cynomolgus Siglec-2/CD22; in assay [2]) was less than 1 µM throughout.

The record behind these values is US20250064941A1, “SIGLEC LIGANDS, CONJUGATES, AND METHODS OF USE THEREOF” (Osprey Biopharmaceuticals, Inc., priority 2023, published 2025).
